From patent US20070238700A1, “N-PHENYL-1,1,1-TRIFLUOROMETHANESULFONAMIDE HYDRAZONE DERIVATIVE COMPOUNDS AND THEIR USAGE IN CONTROLLING PARASITES” (priority 2006, published 2007)

Test system: Haemonchus contortus
Test: Haemonchus contortus larvacidal assay (larval development, LD99)
Conditions: not given
Method: a) Haemonchus Contortus Larvacidal Assay:
The effect of compounds on larval development was determined in the assay described by Gill et al., (1995, International Journal of Parasitology 25:463-470). Briefly, in this assay, nematode eggs were applied to the surface of an agar matrix containing the test compound and then allowed to develop through to the L3, infective stage (6 days). The wells for each dilution of every compound (from highest to lowest concentration) were inspected to determine the well number corresponding to the lowest concentration at which development was inhibited in 99% of the nematode larvae present (LD99). Because well numbers correspond to a two-fold serial dilution of each compound, a titre (dilution factor) is generated as 2n^−1, where n is the well number. By dividing the highest concentration tested by the titre an LD99 value can be obtained, representing the concentration required to inhibit development in 99% of the nematode larvae present. The compounds supplied as solid and viscous liquids were dissolved in DMSO. Twelve serial one-half dilutions in DMSO solution were prepared from the stock solution, each of which was then diluted ⅕ with water. Aliquots (10 μl) of each dilution were transferred to the bioassay plates to give a final concentration range of 0.024 to 50 μg/ml.

Going from CC(=NNc1ccc(C(F)(F)F)cc1)c1cc(Cl)ccc1NS(=O)(=O)C(F)(F)F [Compound 1, N-[2-[1-(4-trifluoro-methylphenyl)hydrazono]ethyl-4-chlorophenyl]-trifluoromethanesulfonamide] to CCC(=NNc1ccc(C(F)(F)F)cc1)c1cc(Cl)ccc1NS(=O)(=O)C(F)(F)F [Compound 2], the “H. contortus LD99” value rises from 3.8 ppm to 6 ppm.

Compared with CC(=NNc1cccc(Cl)c1Cl)c1cc(Cl)ccc1NS(=O)(=O)C(F)(F)F [Compound 3], CCC(=NNc1cccc(Cl)c1Cl)c1cc(Cl)ccc1NS(=O)(=O)C(F)(F)F [Compound 13, N-[2-[1-(2,3-dichlorophenyl)hydrazono]propyl-4-chlorophenyl]-trifluoromethanesulfonamide] is higher in “H. contortus LD99” value: 1.5 ppm for the first, 3 ppm for the second.

Going from CC(=NNc1ccc(Cl)cc1Cl)c1cc(Cl)ccc1NS(=O)(=O)C(F)(F)F [Compound 4] to CC(=NNc1cc(Cl)ccc1Cl)c1cc(Cl)ccc1NS(=O)(=O)C(F)(F)F [Compound 7], the “H. contortus LD99” value rises from 0.63 ppm to 0.94 ppm.

First: CC(=NNc1ccc(Cl)c(Cl)c1)c1cc(Cl)ccc1NS(=O)(=O)C(F)(F)F [Compound 5]
Second: CCC(=NNc1ccc(Cl)c(Cl)c1)c1cc(Cl)ccc1NS(=O)(=O)C(F)(F)F [Compound 14]
The “H. contortus LD99” value of the first is lower: 3.3 ppm for the first, 3.8 ppm for the second.

Going from CC(=NNc1cc(Cl)cc(Cl)c1)c1cc(Cl)ccc1NS(=O)(=O)C(F)(F)F [Compound 6] to CCC(=NNc1cc(Cl)cc(Cl)c1)c1cc(Cl)ccc1NS(=O)(=O)C(F)(F)F [Compound 16], the “H. contortus LD99” value falls from 3.5 ppm to 2.8 ppm.

Going from CC(=NNc1ccc(Br)cc1)c1cc(Cl)ccc1NS(=O)(=O)C(F)(F)F [Compound 8] to CCC(=NNc1ccc(Br)cc1)c1cc(Cl)ccc1NS(=O)(=O)C(F)(F)F [Compound 15], the “H. contortus LD99” value falls from 7.5 ppm to 3.8 ppm.

Compared with CCC(=NNc1ccc(Cl)cc1Cl)c1cc(Cl)ccc1NS(=O)(=O)C(F)(F)F [Compound 18], CCC(=NNc1cc(Cl)ccc1Cl)c1cc(Cl)ccc1NS(=O)(=O)C(F)(F)F [Compound 19] is higher in “H. contortus LD99” value: 0.47 ppm for the first, 0.94 ppm for the second.

For COc1ccc(NN=C(C)c2cc(Cl)ccc2NS(=O)(=O)C(F)(F)F)cc1 [Compound 10], the “H. contortus LD99” value was greater than 15 ppm.
With CC(=NNC(=O)c1ccccc1)c1cc(Cl)ccc1NS(=O)(=O)C(F)(F)F [Compound 11] the “H. contortus LD99” value was greater than 15 ppm.

Test system: Ctenocephalides felis
Test: not given
Conditions: 8 h; data from laboratory 2
In short: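 Adult cat fleas (3–7 days post-emergence), 15 per flask in ≥4 replicates, exposed to a dried acetone residue at 1.26 μg/cm^2 on a Coatasil-treated glass flask base. Held at 25±1° C, 75±5% humidity; mortality (immobile or unable to right) scored at 8, 24 and/or 48 h.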

In the case of CC(=NNc1ccc(Br)cc1)c1cc(Cl)ccc1NS(=O)(=O)C(F)(F)F [Compound 8], the “C. felis Mortality (%) 8 h” value is reported as 12^B %.
In the case of CCC(=NNc1ccc(Cl)cc1Cl)c1cc(Cl)ccc1NS(=O)(=O)C(F)(F)F [Compound 18], the “C. felis Mortality (%) 8 h” value is reported as 5^B %.

Test system: not given
Test: not given
Conditions: not given

In the case of Cn1ccc(-c2cc(Cl)ccc2NS(=O)(=O)C(F)(F)F)n1, the melting point is reported as 196 to 197 °C.
